Measurements published in publication PMC7037447, “Syntheses of L-Rhamnose-Linked Amino Glycerolipids and Their Cytotoxic Activities against Human Cancer Cells” (Molecules, 2020).
Like-named read-outs stand apart in the source and are kept apart here.

Key:
JIMT-1 [1] = assay: MTS cell viability assay, 48 h; type: cell-based, human; details: Homo sapiens; JIMT-1, 48 h, MTS; read-out: CC50
Experimental: (§1) The cells were incubated with increasing concentrations of the compounds (0–30 µM) for 48 h followed by assessment of cell viability using the MTS assay. […] This compound carries a primary amino group at the sn-3 position of the glycerolipid and L-rhamno sugar at the sn-2 position via an α-rhamnosidic linkage.
(§2) The cell lines were cultured from frozen stocks originally obtained from ATCC (Manassas, VA, USA). MDA-MB-231, JIMT-1, DU145, MDA-MB-468, Hs578t and MDA-MB-453 were grown in DMEM medium supplemented with 10% FBS. BT-474 cells were grown in DMEM/F12 medium supplemented with 10% FBS. MiaPaCa2 was cultured in DMEM supplemented with 10% FBS and 2.5% horse serum. All the media contained penicillin/streptomycin. U-251 and U-87 in Eagle MEM supplemented by 10% FBS, 1% Non-essential amino acids, 1 mM sodium pyruvate and 2 mM glutamine. BT-549 was cultured in RPMI 1640 medium supplemented with 10% FBS.
(§3) The effects of the GAELs on the viability of the epithelial cancer cell lines were determined as previously described. Briefly, equal numbers of the cells were dispersed into 96-well plates. After 24 h, the cells were incubated with the compounds (0–30 µM) for 48 h. MTS reagent [3-(4,5-dimethylthiazol-2-yl)-5-(3-carboxymethoxyphenyl)-2-(4-sulfophenyl)-2H-tetrazolium, inner salt; Promega, Madison, WI, USA] (20% v/v) was subsequently added and the plates were incubated for 1–4 h in a CO2 incubator followed by measurement of the medium at OD490 with a plate reader (Molecular Devices). Wells with media but no cells were treated in similar fashion and the values utilized as blank.

DU-145 [2] = assay: MTS cell viability assay, 48 h; type: cell-based, human; details: Homo sapiens; DU-145, 48 h, MTS; read-out: CC50
Experimental: as §1, §2
as §3, with “Devices).” for “Devices). Wells with media but no cells were treated in similar fashion and the values utilized as blank.”

MiaPaCa2 = assay: MTS cell viability assay, 48 h; type: cell-based, human; details: Homo sapiens, MIA PaCa-2; MiaPaCa2, 48 h, MTS; read-out: CC50
Experimental: as §1, §2
as §3, with “Devices).” for “Devices). Wells with media but no cells were treated in similar fashion and the values utilized as blank.”

[3] = system: human epithelial cancer cell lines: breast (MDA-MB-231, JIMT-1), pancreas (MiaPaCa2) and prostate (DU-145, PC-3); assay: MTS cell viability assay, 48 h, across the panel of cell lines; type: cell-based; details: 48 h, 48 h, MTS; for CC50: range or bound over all cell lines, read-out: CC50 values across the cell lines
Experimental: as §1, §2, §3

[4] = system: BT474 (hormone receptor positive breast cancer cells); assay: MTS cell viability assay, 48 h; type: cell-based; details: Homo sapiens, BT-474
Experimental: (§4) Concentrations of compound 3 between 6–15 µM were sufficient to kill all the triple negative cell lines with the exception of MDA-MB-453 where viability was inhibited by 60% at the highest concentration tested. 30 µM of 3 was required for complete loss of viability of the hormone sensitive breast cancer BT474 cell line.
as §2
(§5) The effects of the GAELs on the viability of the epithelial cancer cell lines were determined as previously described. Briefly, equal numbers of the cells were dispersed into 96-well plates. After 24 h, the cells were incubated with the compounds (0–30 µM) for 48 h. […] (20% v/v) was subsequently added and the plates were incubated for 1–4 h in a CO2 incubator followed by measurement of the medium at OD490 with a plate reader (Molecular Devices). […]

[5] = system: BT549, MDA-MB-453, MDA-MB-468, and Hs578t (triple negative breast cancer lines); assay: MTS cell viability assay, 48 h, triple negative breast cancer lines; type: cell-based, human; details: with the exception of MDA-MB-453
Experimental: as §4, §2, §5

DU-145 [6] = details: DU-145, absence or presence of 40 µM QVD, 48 h
Experimental: (§6) One of the hallmark features of cytotoxic GAELs is their ability to kill cancer cells via an apoptosis-independent mechanism. We evaluated whether the mechanism of action of 3 was similar to other GAELs.
(§7) Equal numbers of JIMT-1, or DU145 cells were dispersed into 96-well plates, and after 4 h the cells were treated with pan-caspase inhibitor QVD-OPh (40 µM). After 20 h, the cells were incubated with the varying concentration of the compounds ([…]) for 48 h. At the end of the incubation, the MTS assay was used to assess cell viability as described above.
(§8) DU-145 or JIMT-1 cell lines were treated with increasing concentrations of 3 or Adriamycin in the presence or absence of 40 µM QVD. Four hours after plating, cells were treated with QVD. After 20 h, the cells were incubated with 0–15 µM 3 or 0–4 µM Adriamycin for 48 h. Cell viability relative to vehicle control was measured by MTS assay.

JIMT-1 [7] = details: JIMT-1, absence or presence of 40 µM QVD, 48 h
Experimental: as §6, §7, §8

Hemolytic assay = type: cell-based; details: sheep, ovine erythrocytes (washed suspension), pH 7.4, relative to 1% ammonium hydroxide = 100%, read-out: Highest hemolysis observed
Experimental: To further evaluate the membrane lytic properties of compound 3, we investigated its capacity to lyse ovine erythrocytes. The highest hemolysis observed with compound 3 was about 6.6% at 100 µM compared to the 1% ammonium hydroxide positive control (Figure 6).
The hemolytic activity of the GAEL analogs was evaluated using ovine erythrocyte. Sheep whole blood was collected from a slaughter house into a vessel containing disodium EDTA ([…]) in a buffered saline (10 mM Tris, 150 mM NaCl, pH 7.4). The erythrocytes were prepared and washed with buffered saline as previously reported. For the assay, the erythrocyte suspension, varying amounts of the GAEL drugs or vehicle were pipetted into 1.5 mL microcentrifuge tubes to give a final volume of 1500 µL and cell density of 2.5 × 10^8 cells/mL. The suspensions were incubated with gentle shaking in Eppendorf thermomixer for 30 min. […] 200 µL of the supernatant was dissolved in 1800 µL of 0.5% NH4OH and the optical density (OD) was recorded using 1 mL cuvette at 540 nm in a spectrophotometer. […] The % hemolysis was calculated using the optical density (OD) values as shown below in Equation (1):% hemolysis = (X − 0%)/(100% − 0%)(1) where X is the OD values of the drug(s) at varying concentration.
Figure 6 Hemolytic properties of GAEL 3 using freshly isolated ovine erythrocytes. […] The values were determined as % of control.

SMILES: CCCCCCCCCCCCCCCCOCC(CN)OC1OC(C)C(O)C(O)C1O [Compound 3, 3-Amino-1-O-hexadecyloxy-2R-(O–α-L-rhamnopyranosyl)-sn-glycerol]
- CC50 (JIMT-1 [1]): 5.5 µM
- CC50 (DU-145 [2]): 8.2 µM
- CC50 (MiaPaCa2): 8.5 µM
- CC50 ([3]; Homo sapiens): 4.8 to 14 µM
- Concentration range giving greater than 90% loss of cell viability ([3]; all the cell lines): 7.5 to 15.0 µM
- CC50 [3]: 4.8 to 11 µM
- CC50 [4]: 14 µM
- Concentrations sufficient to kill all the triple negative cell lines [5]: 6 to 15 µM
- Effect of QVD on cytotoxicity (DU-145 [6]): no statistically significant differences
- Effect of QVD on cytotoxicity (JIMT-1 [7]): no statistically significant differences
- hemolysis at 30 min, 100 µM (Hemolytic assay): ~6.6%
